Values of other authors as cited in US9532941B2, “Method for treatment of hair loss with a combination of natural ingredients” (priority 2011, dated 2017).

Columns and labels:
human 5-α-reductase = details: cell free assay in vitro
human hair = details: in vitro exposure; cell proliferation markers

For Cn1c(=O)c2c(ncn2C)n(C)c1=O [caffeine], the “counteraction of testosterone-induced growth suppression” value (human hair follicles; caffeine 0.001% and 0.005%, 5 mg/ml testosterone) is given as “counteracted” and the “hair follicle growth, caffeine alone” value (human hair follicles; caffeine alone) is given as “significant stimulation of hair follicle growth”.
In the case of C[C@]12CC[C@H]3[C@@H](CCC4=CC(=O)CC[C@@]43C)[C@@H]1CC[C@@H]2O [testosterone], the “growth of hair follicles” value (human hair follicles; hair follicles treated with 5 mg/ml testosterone) is given as “Significant growth suppression”.
In the case of epigallocatechin-3-gallate [EGCG], the “inhibition of human 5-α-reductase, cell free” value (human 5-α-reductase) is listed as “potently inhibited” and the human hair growth (human hair) is listed as “stimulates human hair growth”.
